# Results published in ChEMBL document CHEMBL1201862, “PubChem BioAssay data set” (2004).
# Calls of active or inactive are those of the source.
# Legend:
# [1] = decrease of insulin promoter-GFP reporter – imaging, high-content screening, mouse beta cells (AID 1628); assay type: functional; conditions: MIN6
# [2] = MIN6 cell viability loss – mouse insulinoma, cytotoxicity control, dose response (AID 2122); assay type: functional;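 also: confirmatory high-throughput counterscreen run to flag cytotoxic compounds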
# [3] = molecular target: T1, Type-1 angiotensin II receptor (Homo sapiens, UniProt P30556); assay: antagonism of angiotensin II type 1 receptor – cell-based, uHTS hits, selectivity assay for APJ receptor antagonist project, dose response (AID 463214); assay type: functional;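 also: antagonist potency against angiotensin II stimulated AT1 response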
# T1 sequence (P30556 whole entry): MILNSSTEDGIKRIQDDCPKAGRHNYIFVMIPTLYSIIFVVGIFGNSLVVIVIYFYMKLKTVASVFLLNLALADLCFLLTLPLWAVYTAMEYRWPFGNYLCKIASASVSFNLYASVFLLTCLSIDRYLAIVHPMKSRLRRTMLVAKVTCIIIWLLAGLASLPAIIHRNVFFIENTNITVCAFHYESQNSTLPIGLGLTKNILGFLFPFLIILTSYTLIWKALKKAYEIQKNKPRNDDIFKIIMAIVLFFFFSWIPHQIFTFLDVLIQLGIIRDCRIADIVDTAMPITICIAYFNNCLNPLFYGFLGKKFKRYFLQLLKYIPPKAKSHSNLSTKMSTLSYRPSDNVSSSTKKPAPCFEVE
# SUMO-activating enzyme [4] = molecular target: T2, SUMO-activating enzyme (Homo sapiens, UniProt Q9UBT2); assay: blockers of SAE1/SAE2–UBC9 SUMO transfer – biochemical, HTRF, uHTS, primary screen (AID 2006); assay type: protein-complex assay
# [5] = molecular target: T3, Sentrin-specific protease 8 (Homo sapiens, UniProt Q96LD8); assay type: functional
# T3 sequence (Q96LD8 whole entry): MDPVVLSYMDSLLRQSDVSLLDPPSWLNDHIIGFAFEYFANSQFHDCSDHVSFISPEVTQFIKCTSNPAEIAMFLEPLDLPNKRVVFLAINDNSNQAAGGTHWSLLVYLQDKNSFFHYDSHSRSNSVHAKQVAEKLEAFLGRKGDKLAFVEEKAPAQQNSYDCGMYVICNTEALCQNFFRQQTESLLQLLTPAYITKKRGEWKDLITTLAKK
# SUMO-activating enzyme [6] = molecular target: T2, SUMO-activating enzyme; assay: blockers of UBC9-mediated SUMO conjugation – biochemical, AlphaScreen, SUMOylation inhibitor project, confirmation (AID 2018); assay type: functional
# Beta-galactosidase = Beta-galactosidase (Escherichia coli, UniProt Q8VNN2); assay: PubChem AID 485352; assay type: functional
# [7] = molecular target: T3, Sentrin-specific protease 8; assay type: functional; remark: listed apart in the source
# [8] = molecular target: T4, Mannose-6-phosphate isomerase (Homo sapiens, UniProt P34949); assay: MPI inhibition at elevated mannose 6-phosphate – biochemical, fluorescence intensity, high mannose 6-phosphate, primary screen (AID 1220)
# T4 sequence (P34949 whole entry): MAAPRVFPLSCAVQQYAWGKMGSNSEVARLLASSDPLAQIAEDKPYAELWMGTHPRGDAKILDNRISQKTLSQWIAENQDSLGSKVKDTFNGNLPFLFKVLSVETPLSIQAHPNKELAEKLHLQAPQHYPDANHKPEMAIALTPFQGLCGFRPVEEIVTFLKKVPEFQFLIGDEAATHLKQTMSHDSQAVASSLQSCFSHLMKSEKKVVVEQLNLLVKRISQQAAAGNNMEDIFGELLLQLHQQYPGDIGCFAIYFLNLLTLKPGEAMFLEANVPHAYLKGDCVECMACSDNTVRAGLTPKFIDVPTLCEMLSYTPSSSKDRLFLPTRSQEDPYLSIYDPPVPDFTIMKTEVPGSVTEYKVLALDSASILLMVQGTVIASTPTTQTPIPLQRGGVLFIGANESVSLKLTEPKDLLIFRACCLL
# Vero = assay: cells; assay type: functional, cell-based; conditions: Chlorocebus sabaeus
# [9] = viability of uninfected HEp-2 cells – cell-based, HTS, cytotoxicity control for RSV inhibitor project, dose response (AID 2410); assay type: functional; conditions: human respiratory syncytial virus
# T2 sequence (Q9UBE0 whole entry): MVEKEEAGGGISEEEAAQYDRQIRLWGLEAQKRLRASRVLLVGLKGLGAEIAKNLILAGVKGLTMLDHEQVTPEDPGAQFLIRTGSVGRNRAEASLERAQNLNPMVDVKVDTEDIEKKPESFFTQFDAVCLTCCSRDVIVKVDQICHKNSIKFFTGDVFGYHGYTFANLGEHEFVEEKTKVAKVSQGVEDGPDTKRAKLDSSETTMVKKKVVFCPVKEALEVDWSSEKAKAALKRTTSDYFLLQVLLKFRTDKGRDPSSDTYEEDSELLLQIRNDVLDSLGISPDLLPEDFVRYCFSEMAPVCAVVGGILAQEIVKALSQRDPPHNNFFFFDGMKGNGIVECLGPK
# T2 sequence (Q9UBT2 whole entry): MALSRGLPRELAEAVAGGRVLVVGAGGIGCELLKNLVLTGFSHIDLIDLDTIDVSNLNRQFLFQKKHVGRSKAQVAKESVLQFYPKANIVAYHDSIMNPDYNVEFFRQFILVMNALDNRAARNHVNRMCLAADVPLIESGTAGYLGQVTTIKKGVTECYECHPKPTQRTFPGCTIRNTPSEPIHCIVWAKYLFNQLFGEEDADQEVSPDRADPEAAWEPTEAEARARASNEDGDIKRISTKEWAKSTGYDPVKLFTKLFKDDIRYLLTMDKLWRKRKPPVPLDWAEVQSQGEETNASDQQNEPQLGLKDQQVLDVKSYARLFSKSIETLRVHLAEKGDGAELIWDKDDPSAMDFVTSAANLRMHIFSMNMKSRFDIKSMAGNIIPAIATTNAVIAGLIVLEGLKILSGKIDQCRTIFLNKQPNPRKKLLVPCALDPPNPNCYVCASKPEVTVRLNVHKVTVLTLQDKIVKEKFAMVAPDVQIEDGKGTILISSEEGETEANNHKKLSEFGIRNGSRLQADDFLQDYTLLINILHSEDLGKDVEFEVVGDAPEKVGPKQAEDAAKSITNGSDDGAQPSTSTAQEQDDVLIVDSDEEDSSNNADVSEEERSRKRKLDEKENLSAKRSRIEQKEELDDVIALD
# Beta-galactosidase, sequence (Q8VNN2 whole entry): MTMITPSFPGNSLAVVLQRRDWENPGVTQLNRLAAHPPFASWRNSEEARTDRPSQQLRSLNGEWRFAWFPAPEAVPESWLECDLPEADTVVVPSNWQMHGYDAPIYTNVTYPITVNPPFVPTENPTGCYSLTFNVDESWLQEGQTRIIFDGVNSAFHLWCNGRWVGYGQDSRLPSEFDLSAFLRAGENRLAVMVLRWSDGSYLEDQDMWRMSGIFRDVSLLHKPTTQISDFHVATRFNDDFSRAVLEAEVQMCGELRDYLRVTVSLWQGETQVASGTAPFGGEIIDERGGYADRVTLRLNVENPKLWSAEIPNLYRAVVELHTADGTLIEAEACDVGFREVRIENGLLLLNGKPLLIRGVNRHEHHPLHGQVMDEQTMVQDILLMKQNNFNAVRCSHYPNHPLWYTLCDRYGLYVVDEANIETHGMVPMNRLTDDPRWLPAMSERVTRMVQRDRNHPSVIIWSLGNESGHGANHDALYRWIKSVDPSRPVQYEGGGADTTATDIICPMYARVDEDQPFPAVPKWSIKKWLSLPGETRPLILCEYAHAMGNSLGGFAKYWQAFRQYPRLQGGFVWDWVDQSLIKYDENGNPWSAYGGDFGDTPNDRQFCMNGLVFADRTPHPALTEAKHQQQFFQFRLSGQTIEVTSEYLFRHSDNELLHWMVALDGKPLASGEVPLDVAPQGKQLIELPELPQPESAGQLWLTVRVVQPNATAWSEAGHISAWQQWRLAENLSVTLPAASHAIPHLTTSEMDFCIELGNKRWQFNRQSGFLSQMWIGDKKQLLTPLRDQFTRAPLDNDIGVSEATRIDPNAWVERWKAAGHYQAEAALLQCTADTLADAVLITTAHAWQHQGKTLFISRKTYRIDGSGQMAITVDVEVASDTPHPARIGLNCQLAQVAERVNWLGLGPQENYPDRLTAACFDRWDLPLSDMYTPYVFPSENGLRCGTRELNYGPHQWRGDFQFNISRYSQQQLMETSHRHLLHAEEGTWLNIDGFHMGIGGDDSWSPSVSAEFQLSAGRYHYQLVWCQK
structure (smiles),measurement,setting,value
Cc1cc(NC(=O)CCc2ccc(S(=O)(=O)N3CCOCC3)cc2)n(-c2ccccc2)n1,IC50,[1],2 µM (active)
same,IC50,[2],1.53 µM (active)
O=C1Nc2ccc([N+](=O)[O-])cc2C1=Nc1cccc(CO)c1,IC50,[3],> 40 µM (not active)
same,IC50,SUMO-activating enzyme [4],18.7 µM (active)
same,IC50,[5],7.06 µM (active)
same,IC50,SUMO-activating enzyme [6],5.51 µM (active)
same,EC50,Beta-galactosidase,> 40 µM (inactive)
same,IC50,[7],8.6 µM (active)
same,IC50,[8],12.4 µM (active)
Oc1nc(SCc2nc(O)c3cnn(-c4ccccc4)c3n2)nc2ccccc12,IC50,Vero,1.08 µM (active)
Cc1cc(C(C)(C)C)cc(C)c1CCNC(=O)c1ccc[n+]([O-])c1,CC50,[9],38.3 µM (active)
same,IC50,cells,38 µM (active)
same,IC50,Vero,> 25 µM (active)
